Data published in patent US5023254A, “Aminoalkylindoles, their production, and pharmaceutical preparations based thereon” (Schering Aktiengesellschaft, priority 1988, dated 1991).
“And” between values parts separate entries of the source, which are not always exact repeats. Equal entries are not always repeated.

Legend:
[1] = system: human MCF-7 breast cancer cells; experiment: growth of hormone-dependent human MCF-7 breast cancer cells, cell count; type: cell-based; details: Homo sapiens, MCF7, read-out: Cell Count (% T/C); for activity at 10 µM: MCF-7, 1 × 10^-5 M; for activity at 1 µM: MCF-7, 1 × 10^-6 M; for activity at 0.1 µM: MCF-7, 1 × 10^-7 M; for activity at 5 µM: MCF-7, 5 × 10^-6 M; for activity at 0.5 µM: MCF-7, 5 × 10^-7 M
Description: The test protocol for the research is fully described in Eur.J. Cancer Clin. Oncol.

mouse uterus [2] = experiment: Antiuterotrophic test on infantile mouse (anti-estrogen activity); type: in vivo; parameters: Antiuterotrophic Test Rel. uterus wgt / Antiuterotrophic Test Action (rel. uterus wgt): unit not given here; details: for inhibition in vivo at 0.125 mg: Mus musculus; for inhibition in vivo at 0.125 mg / inhibition in vivo at 0.005 mg / inhibition in vivo at 0.025 mg / inhibition in vivo at 0.625 mg: read-out: Antiuterotrophic Test Inhib. (%); for Antiuterotrophic Test Rel. uterus wgt / inhibition in vivo at 0.005 mg / inhibition in vivo at 0.025 mg / Antiuterotrophic Test Action (rel. uterus wgt) / inhibition in vivo at 0.625 mg: infantile mouse; for inhibition in vivo at 0.005 mg: dose 5 ug (per animal); for inhibition in vivo at 0.025 mg: dose 25 ug (per animal)
Description: (§1) This test is fully described in Cancer Treatment Reviews 1984, 11, 147, and J.Med.Chem., 1984, 27, 1439.

mouse uterus [3] = experiment: Uterotrophic test on infantile mouse (estrogen activity); type: in vivo; parameters: unit not given here
Description: as §1

estrogen receptor = molecular target: T1, estrogen receptor (Bos taurus, UniProt P49884); experiment: relative binding affinity (RBA) for the estrogen receptor from calf uterus, displacement of 3H-17β estradiol; details: for RBA (relative binding affinity for the estrogen receptor): calf uterus, relative to 17 beta estradiol = 100; for affinity for the estrogen receptor (in words): in comparison with estradiol
T1 construct: estrogen receptor from calf uterus; from tissue; host or cells: calf uterus
T1 sequence (P49884 1-596): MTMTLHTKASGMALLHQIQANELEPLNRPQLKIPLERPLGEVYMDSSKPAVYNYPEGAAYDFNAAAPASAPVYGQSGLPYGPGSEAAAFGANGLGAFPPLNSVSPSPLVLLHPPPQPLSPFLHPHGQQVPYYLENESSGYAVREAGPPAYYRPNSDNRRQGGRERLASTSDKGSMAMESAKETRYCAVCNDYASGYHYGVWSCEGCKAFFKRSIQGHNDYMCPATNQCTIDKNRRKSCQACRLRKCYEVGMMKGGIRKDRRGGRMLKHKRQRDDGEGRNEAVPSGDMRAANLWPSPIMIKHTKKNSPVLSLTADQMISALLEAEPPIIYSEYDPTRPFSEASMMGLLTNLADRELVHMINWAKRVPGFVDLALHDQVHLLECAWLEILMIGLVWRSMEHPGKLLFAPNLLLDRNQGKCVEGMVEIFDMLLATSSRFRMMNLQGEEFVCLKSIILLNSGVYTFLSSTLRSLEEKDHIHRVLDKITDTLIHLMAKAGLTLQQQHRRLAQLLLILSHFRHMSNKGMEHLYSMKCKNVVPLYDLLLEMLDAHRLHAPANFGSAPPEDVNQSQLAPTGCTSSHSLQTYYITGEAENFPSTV
Description: *Relative binding affinities for the estrogen receptor from calf uterus,

SMILES | activity at 10 µM [1] [%] | activity at 1 µM [1] [%] | activity at 0.1 µM [1] [%] | inhibition in vivo at 0.125 mg (mouse uterus [2]) [%] | inhibition in vivo at 0.005 mg (mouse uterus [2]) [%] | inhibition in vivo at 0.025 mg (mouse uterus [2]) [%] | RBA (relative binding affinity for the estrogen receptor) (estrogen receptor) | Antiuterotrophic Test Action (rel. uterus wgt) (mouse uterus [2]; dose 5 ug/animal) | Antiuterotrophic Test Action (rel. uterus wgt) (mouse uterus [2]; dose 25 ug/animal) | Uterotrophic Test Action (rel. uterus wgt) (mouse uterus [3]; dose 5 ug/animal) | Uterotrophic Test Action (rel. uterus wgt) (mouse uterus [3]; dose 25 ug/animal) | affinity for the estrogen receptor (in words) (estrogen receptor) | other results
Cc1c(-c2ccc(O)cc2)n(CCCCCCN2CCOCC2)c2ccc(O)cc12 [Compound 10, 5-Hydroxy-2-(4-hydroxyphenyl)-3-methyl-1-[6-morpholino-hexyl]-indole] | 36 | 52 | 75 | 102 | 8 | 18 | 10 |  |  |  |  |  | Antiuterotrophic Test Rel. uterus wgt (mouse uterus [2]; dose 5 ug): 51.2 ± 7.5; Antiuterotrophic Test Rel. uterus wgt (mouse uterus [2]; dose 25 ug): 47.7 ± 8.4; Antiuterotrophic Test Rel. uterus wgt (mouse uterus [2]; dose 125 ug): 18.0 ± 4.8; Uterotrophic Test Rel. uterus wgt (mouse uterus [3]; dose 1 ug): 21.2 ± 3.9; Uterotrophic Test Rel. uterus wgt (mouse uterus [3]; dose 5 ug): 19.5 ± 6.9; Uterotrophic Test Rel. uterus wgt (mouse uterus [3]; dose 25 ug): 21.8 ± 11.3; Uterotrophic Test Rel. uterus wgt (mouse uterus [3]; dose 125 ug): 17.4 ± 1.7
CCN(CC)CCCCCCn1c(-c2ccc(O)cc2)c(C)c2cc(O)ccc21 [Compound 11] |  |  |  | 50 | 11 | 8 | 14 | 51.3 ± 4.9 | 52.1 ± 8.9 | 24.8 ± 11.7 | 14.7 ± 4.3 |  | Antiuterotrophic Test Action (rel. uterus wgt) (mouse uterus [2]; dose 625 ug/animal): 43.7 ± 7.4; inhibition in vivo at 0.625 mg (mouse uterus [2]; dose 625 ug/animal): 37%; Uterotrophic Test Action (rel. uterus wgt) (mouse uterus [3]; dose 625 ug/animal): 36.4 ± 17.6
Cc1c(-c2ccc(O)cc2)n(CCCCCC(=O)N2CCCC2)c2ccc(O)cc12 [Compound 16, 5-Hydroxy-2-(4-hydroxyphenyl)-3-methyl-1-(6-pyrrolidinocarbonylpentyl)-indole] | 42.1 ± 4 | 47.1 ± 3.7 | 57.2 ± 4.4 | 53 | 10 | 29 | 7 | 47.5 ± 10.9 | 42.0 ± 7.0 | 18.2 ± 2.3 | 16.5 ± 2.4 |  | activity at 5 µM [1]: 44 ± 3.6%; activity at 0.5 µM [1]: 48.2 ± 5.4%; Antiuterotrophic Test Action (rel. uterus wgt) (mouse uterus [2]; dose 625 ug/animal): 40.7 ± 3.9; inhibition in vivo at 0.625 mg (mouse uterus [2]; dose 625 ug/animal): 44%; Uterotrophic Test Action (rel. uterus wgt) (mouse uterus [3]; dose 625 ug/animal): 35.3 ± 10.7
Oc1ccc(-c2cc3cc(O)ccc3n2CCCCCCN2CCCCC2)cc1 [Compound 7, 5-Hydroxy-2-(4-hydroxyphenyl)-1-[6-piperidino-hexyl]-indole] |  |  |  |  |  |  | 1.3 |  |  |  |  | least affinity | 
Oc1ccc(-c2cc3cc(O)ccc3n2CCCCCCN2CCCC2)cc1 [Compound 5, 5-Hydroxy-2-(4-hydroxyphenyl)-1-[6-pyrrolidino-hexyl]-indole] |  |  |  |  |  |  | 2.3 |  |  |  |  |  | 
Cc1c(-c2ccc(O)cc2)n(CCCCCC(=O)N2CCOCC2)c2ccc(O)cc12 [Compound 18, 5-Hydroxy-2-(4-hydroxyphenyl)-3-methyl-1-(6-morpholinocarbonylpentyl)-indole] | 33.3 ± 2.8 | 56.4 ± 5.2 | 57.5 ± 6.8 | 41 |  |  | 26 | 53.5 ± 8.7 | 52.8 ± 7.4 | 22.0 ± 5.6 | 21.2 ± 4.6 |  | activity at 5 µM [1]: 42.4 ± 3.7%; activity at 0.5 µM [1]: 58.1 ± 6.7%; Uterotrophic Test Action (rel. uterus wgt) (mouse uterus [3]; dose 1 ug/animal): 20.2 ± 3.4
CCN(CC)C(=O)CCCCCn1c(-c2ccc(O)cc2)c(C)c2cc(O)ccc21 [Compound 19, 1-(6-Diethylcarbamoylpentyl)-5-hydroxy-2-(4-hydroxyphenyl)-3-methylindole] | 44.9 ± 3.7 | 61.4 ± 4.4 | 59.7 ± 6.1 | 34 | 13 | 13 | 15 | 50.9 ± 8.2 | 50.9 ± 4.8 | 18.4 ± 3.2 | 17.9 ± 2.0 |  | activity at 5 µM [1]: 56.2 ± 4.5%; activity at 0.5 µM [1]: 60.1 ± 3.8%; Antiuterotrophic Test Action (rel. uterus wgt) (mouse uterus [2]; dose 625 ug/animal): 35.3 ± 6.1; inhibition in vivo at 0.625 mg (mouse uterus [2]; dose 625 ug/animal): 66%; Uterotrophic Test Action (rel. uterus wgt) (mouse uterus [3]; dose 625 ug/animal): 32.7 ± 6.5
Cc1c(-c2ccc(O)cc2)n(CCCCCCN)c2ccc(O)cc12 [Compound 2, 5-Hydroxy-2-(4-hydroxyphenyl)-3-methyl-1-[6-amino-hexyl]-indole] |  |  |  | 99 | 68 | 102 |  |  |  |  |  | greatest affinity | Antiuterotrophic Test Rel. uterus wgt (mouse uterus [2]; dose 5 ug): 30.0 ± 9.1; Antiuterotrophic Test Rel. uterus wgt (mouse uterus [2]; dose 25 ug): 15.1 ± 1.2; Antiuterotrophic Test Rel. uterus wgt (mouse uterus [2]; dose 125 ug): 16.2 ± 2.7; Uterotrophic Test Rel. uterus wgt (mouse uterus [3]; dose 1 ug): 10.9 ± 4.7; Uterotrophic Test Rel. uterus wgt (mouse uterus [3]; dose 5 ug): 12.0 ± 2.2; Uterotrophic Test Rel. uterus wgt (mouse uterus [3]; dose 25 ug): 12.4 ± 2.7; Uterotrophic Test Rel. uterus wgt (mouse uterus [3]; dose 125 ug): 16.9 ± 2.7
Cc1c(-c2ccc(O)cc2)n(CCCCCCN(C)C)c2ccc(O)cc12 [Compound 4, 5-Hydroxy-2-(4-hydroxyphenyl)-3-methyl-1-[6-dimethyamino-hexyl]-indole] |  |  |  |  |  |  | 12 |  |  |  |  |  | 
Cc1c(-c2ccc(O)cc2)n(CCCCCCCCN2CCCC2)c2ccc(O)cc12 [Compound 9, 5-Hydroxy-2-(4-hydroxyphenyl)-3-methyl-1-[8-pyrrolidino-octyl]-indole] |  |  |  |  |  |  | 7.6 |  |  |  |  |  | 
CNCCCCCCn1c(-c2ccc(O)cc2)c(C)c2cc(O)ccc21 [Compound 3, 5-Hydroxy-2-(4-hydroxyphenyl)-3-methyl-1-[6-methylamino-hexyl]-indole] |  |  |  | 59 | 49 | 43 | 27 |  |  |  |  | greatest affinity | Antiuterotrophic Test Rel. uterus wgt (mouse uterus [2]; dose 5 ug): 38.1 ± 8.2; Antiuterotrophic Test Rel. uterus wgt (mouse uterus [2]; dose 25 ug): 41.0 ± 8.5; Antiuterotrophic Test Rel. uterus wgt (mouse uterus [2]; dose 125 ug): 33.8 ± 2.4; Uterotrophic Test Rel. uterus wgt (mouse uterus [3]; dose 1 ug): 14.2 ± 3.1; Uterotrophic Test Rel. uterus wgt (mouse uterus [3]; dose 5 ug): 22.8 ± 8.6; Uterotrophic Test Rel. uterus wgt (mouse uterus [3]; dose 125 ug): 34.0 ± 6.3
C[C@]12CC[C@@H]3c4ccc(O)cc4CC[C@H]3[C@@H]1CCC2=O [Estrone, reference compound] |  |  |  |  |  |  |  |  |  |  |  |  | Antiuterotrophic Test Rel. uterus wgt (mouse uterus [2]; estrone alone 0.4 ug): 54.2 ± 12.1; Uterotrophic Test Rel. uterus wgt (mouse uterus [3]; estrone 0.4 ug): 45.8 ± 6.2 and 59.8 ± 20.0 and 53.4 ± 3.6 and 43.0 ± 7.2 and 54.2 ± 12.1
Cc1c(-c2ccc(O)cc2)n(CCCCCCN2CCCCC2)c2ccc(O)cc12 [Compound 8, 5-Hydroxy-2-(4-hydroxyphenyl)-3-methyl-1-[6-piperidino-hexyl]-indole] | 38 | 44 | 48 |  |  |  | 23 |  |  |  |  | greatest affinity | 
